Results from US20100113276A1, “USE OF N2-PHENYLAMIDINES AS HERBICIDES” (BAYER CROPSCIENCE AG, priority 2007, published 2010).

Assay: log P by HPLC on reversed-phase column (C18), EEC Directive 79/831 Annex V.A8
Type: physicochemical
Conditions: C18, 40° C.; for log p HCO2H: aqueous formic acid / acetonitrile; for log p H3PO4: 0.1% aqueous phosphoric acid / acetonitrile
Description: The log P data were determined in accordance with the EEC Directive 79/831 Annex V.A8 by HPLC (High Performance Liquid Chromatography) on a reversed-phase column (C18) using the following methods: […]
Calibration was carried out with the help of unbranched alkan-2-ones (consisting of 3 to 13 or 16 carbon atoms) with known logP values (determination of the logP values via the retention times by means of linear interpolation between two subsequent alkanones).

CCC(C)N(C)C=Nc1cc(Cl)c(Oc2ccc(Cl)c(C(C)(C)C)c2)cc1C (stereo not drawn) [compound 579]
log p acidic: 3.19 | log p HCO2H: 3.19 | log p neutral: 7.36

CCN(C)C=Nc1cc(Cl)c(Oc2cc(C(C)C)nn2C)cc1C [compound 602]
log p acidic: 1.65 | log p neutral: 4.04

Cc1cc(-c2ccc(Cl)cc2)c(F)cc1N=CN(C)C(C)C [compound 665]
log p H3PO4: 2.22

CC(C)N(C)C=Nc1cc(Cl)c(Oc2cccc(C(C)(C)C)c2)cc1Cl [compound 807]
log p H3PO4: 2.7 | log p HCO2H: 2.82 | log p neutral: 6.13

Cc1cc(Oc2cc(F)cc(C(F)(F)F)c2)c(C)cc1N=CN1CCCCC1 [compound 373]
log p acidic: 2.29

CCN(C)C=Nc1cc(OC)c(Oc2ccc(Cl)c(C(F)(F)F)c2)cc1C [compound 721]
log p acidic: 2.21

CC(C)(C)c1cc(Oc2cc(Cl)c(N=CN3CCCCC3)cc2Cl)ccc1Cl [compound 814]
log p H3PO4: 3.45 | log p HCO2H: 3.62 | log p neutral: 7.08

CCC(C)N(C)C=Nc1cc(Cl)c(Oc2ccc(Cl)c(C(C)C)c2)cc1C (stereo not drawn) [compound 573]
log p acidic: 2.90 | log p HCO2H: 2.90 | log p neutral: 7.14

CCN(C)C=Nc1cc(Cl)c(Oc2cccc(C(C)(C)C)c2)cc1Cl [compound 806]
log p H3PO4: 2.74 | log p HCO2H: 2.79 | log p neutral: 5.91

Cc1cc(N=CN(C)C(C)C)c(Cl)cc1Oc1cccc(C(C)(C)C)c1 [compound 871]
log p H3PO4: 2.79 | log p HCO2H: 2.54 | log p neutral: 5.84

Cc1cc(Oc2cc(F)cc(Br)c2)c(C)cc1N=CN(C)C [compound 1]
log p acidic: 2.17 | log p neutral: 5.11

CCN(C)C=Nc1cc(F)c(-c2ccc(Cl)c(C(F)(F)F)c2)cc1C [compound 656]
log p acidic: 2.37

CN(C)C=Nc1cc(Cl)c(Oc2ccc(Cl)c(C(F)(F)F)c2)cc1Cl [compound 815]
log p H3PO4: 2.35 | log p HCO2H: 2.45 | log p neutral: 5.15

CCN(C)C=Nc1cc(F)c(Oc2cccc(C(C)(C)C)c2)cc1F [compound 830]
log p acidic: 2.4

Cc1cc(N=CN2CCCCC2)c(Cl)cc1Oc1cccc(Oc2ccccc2)c1 [compound 882]
log p H3PO4: 2.82 | log p HCO2H: 2.66 | log p neutral: 6.03

Cc1cc(N=CN2CCCCC2)c(Cl)cc1Oc1ccc(Cl)c(C(C)(C)C)c1 [compound 906]
log p H3PO4: 3.36 | log p HCO2H: 3.25 | log p neutral: 7.04

CCN(C)C=Nc1cc(Cl)c(Oc2ccc(Cl)c(C(F)(F)F)c2)cc1Cl [compound 816]
log p H3PO4: 2.6 | log p HCO2H: 2.65 | log p neutral: 5.56

CCc1cc(Oc2cc(C)c(N=CN(C)C3CC3)cc2Cl)ccc1Cl [compound 585]
log p HCO2H: 2.89 | log p neutral: 6.34

Cc1cc(Oc2ccc(Br)c(C(C)C)c2)c(Cl)cc1N=CN(C)C(C)C [compound 591]
log p acidic: 3.21 | log p neutral: 6.92

CCN(C)C=Nc1cc(C)c(Oc2ccc(Cl)c(C(C)C)c2)cc1Cl [compound 898]
log p H3PO4: 2.88 | log p HCO2H: 2.78 | log p neutral: 6.12

Cc1cc(Oc2ccc(Cl)c(C(C)(C)C)c2)c(Cl)cc1N=CN(C)C1CC1 [compound 577]
log p HCO2H: 3.24 | log p neutral: 6.94

CCN(C)C=Nc1cc(C(F)(F)F)c(Oc2cccc(C(C)(C)C)c2)cc1C [compound 761]
log p acidic: 2.94

CCN(C)C=Nc1cc(F)c(-c2ccc(Cl)cc2)cc1C [compound 664]
log p H3PO4: 2.13

CCN(C)C=Nc1cc(Cl)c(Oc2cccc(C(C)(C)C)c2)cc1I [compound 862]
log p acidic: 2.98

CCN(C)C=Nc1cc(OC)c(Oc2ccc(Cl)c(C(C)(C)C)c2)cc1C [compound 733]
log p acidic: 2.75

CCN(C)C=Nc1cc(F)c(-c2ccc(Cl)c(C(F)(F)F)c2)cc1F [compound 854]
log p acidic: 2.22

CN(C)C=Nc1cc(C(F)(F)F)c(Oc2ccc(Cl)c(C(F)(F)F)c2)cc1Cl [compound 947]
log p H3PO4: 2.61 | log p HCO2H: 2.78 | log p neutral: 5.39

CCN(C)C=Nc1cc(Cl)c(Oc2ccc(Cl)c(C(C)(C)C)c2)cc1Cl [compound 811]
log p H3PO4: 3.16 | log p HCO2H: 3.17 | log p neutral: 6.64

Cc1cc(N=CN(C)C(C)C)c(Cl)cc1Oc1ccc(Cl)c(C(C)(C)C)c1 [compound 904]
log p H3PO4: 1.35 | log p HCO2H: 3.01 | log p neutral: 6.87

CCN(C)C=Nc1cc(C)c(Oc2ccc(C(C)C)cc2)cc1Cl [compound 888]
log p H3PO4: 2.61 | log p HCO2H: 2.45 | log p neutral: 5.58

CCN(C)C=Nc1cc(C)c(Oc2ccc(Cl)c(C(C)(C)C)c2)cc1C [compound 50]
log p acidic: 2.69 | log p neutral: 5.96

CCN(C)C=Nc1cc(C)c(Oc2nc(C(C)C)ns2)cc1C [compound 547]
log p acidic: 1.74 | log p neutral: 4.33

CC(C)N(C)C=Nc1cc(Cl)c(Oc2nc(C(C)(C)C)ns2)cc1Cl [compound 826]
log p H3PO4: 2.53 | log p HCO2H: 2.78 | log p neutral: 5.61

CCN(C)C=Nc1cc(OC)c(Oc2ccc(Cl)c(C(F)(F)F)c2)cc1OC [compound 986]
log p acidic: 2.23 | log p neutral: 4.14

Cc1cc(-c2ccc(Cl)cc2C)c(C)cc1N=CN(C)C [compound 393]
log p acidic: 2.24 | log p neutral: 5.62

COc1cc(Oc2ccc(Cl)c(C(F)(F)F)c2)c(OC)cc1N=CN(C)C(C)C [compound 987]
log p acidic: 2.35 | log p neutral: 4.5

COc1cc(-c2ccc(C)cc2)c(OC)cc1N=CN(C)C [compound 998]
log p acidic: 1.76

CCCN(C)C=Nc1cc(Cl)c(Oc2cc(C(C)C)nn2C)cc1C [compound 603]
log p acidic: 1.78 | log p neutral: 4.52

Cc1cc(-c2cccc(C(C)C)c2)c(C(F)F)cc1N=CN1CCCCC1 [compound 799]
log p acidic: 2.6

COc1cc(Oc2ccc(Cl)c(C(C)(C)C)c2)c(OC)cc1N=CN(C)C [compound 981]
log p HCO2H: 3.11 | log p neutral: 7.36

CCCN(C)C=Nc1cc(C)c(Oc2ccc(Br)c(C(C)C)c2)cc1C [compound 356]
log p acidic: 2.93 | log p neutral: 7.01

Cc1cc(N=CN2CCCCC2)c(Cl)cc1Oc1cccc(C(C)C)c1 [compound 878]
log p H3PO4: 2.77 | log p HCO2H: 2.62 | log p neutral: 6.14

Cc1cc(Oc2cc(Cl)cc(C(F)(F)F)c2)c(Cl)cc1N=CN(C)C [compound 564]
log p acidic: 2.51

CCN(C)C=Nc1cc(Cl)c(Oc2ccccc2)cc1Cl [compound 801]
log p H3PO4: 1.86 | log p HCO2H: 1.91 | log p neutral: 4.49

CN(C)C=Nc1cc(Cl)c(Oc2ccc(Cl)c(C(C)(C)C)c2)cc1Cl [compound 810]
log p H3PO4: 2.9 | log p HCO2H: 2.94 | log p neutral: 6.13

Cc1cc(Oc2cc(C(C)C)nn2C)c(Cl)cc1N=CN1CCCCC1C (stereo not drawn) [compound 606]
log p acidic: 1.79 | log p neutral: 4.75

Cc1cc(Oc2ccc(C#N)c(C(F)(F)F)c2)c(C)cc1N=CN1CCCCC1 [compound 228]
log p acidic: 1.92 | log p HCO2H: 2.14 | log p neutral: 5.35

CC(C)N(C)C=Nc1cc(Cl)c(Oc2ccc(Cl)c(C(C)(C)C)c2)cc1Cl [compound 812]
log p H3PO4: 3.35 | log p HCO2H: 3.31 | log p neutral: 6.81

Cc1cc(Oc2cc(F)cc(Br)c2)c(C)cc1N=CN(C)C(C)C [compound 321]
log p acidic: 2.37 | log p neutral: 6.21

Cc1cc(N=CN2CCCCC2)c(Cl)cc1Oc1cccc(C(C)(C)C)c1 [compound 873]
log p H3PO4: 3 | log p HCO2H: 2.79 | log p neutral: 6.42

Cc1cc(Oc2ccc(Cl)c(C(C)C)c2)c(Cl)cc1N=CN(C)C(C)C [compound 572]
log p HCO2H: 2.87 | log p neutral: 6.70

CCN(C)C=Nc1cc(F)c(-c2ccc(C(C)(C)C)cc2)cc1F [compound 846]
log p acidic: 2.79

CCN(C)C=Nc1cc(C)c(Oc2cc(Cl)cc(C(C)C)n2)cc1C [compound 407]
log p acidic: 2.18

CCN(C)C=Nc1cc(C)c(Oc2cccc(C(C)C)c2)cc1Cl [compound 875]
log p H3PO4: 2.56 | log p HCO2H: 2.38 | log p neutral: 5.51

CCN(C)C=Nc1cc(OC)c(-c2ccc(C)cc2)cc1OC [compound 999]
log p acidic: 1.89

CCN(C)C=Nc1cc(F)c(-c2ccc(C(C)(C)C)cc2)cc1C [compound 669]
log p acidic: 2.38

Cc1cc(N=CN2CCCCC2)c(Cl)cc1Oc1ccc(C(C)(C)C)cc1 [compound 886]
log p H3PO4: 3.01 | log p HCO2H: 2.78 | log p neutral: 6.49

FC(F)(F)c1cc(Oc2cc(Cl)c(N=CN3CCCCC3)cc2C(F)(F)F)ccc1Cl [compound 951]
log p H3PO4: 3.03 | log p HCO2H: 3.42 | log p neutral: 6.2

CCN(C)C=Nc1cc(Cl)c(Oc2nc(C(C)(C)C)ns2)cc1C [compound 608]
log p acidic: 2.01 | log p HCO2H: 2.01 | log p neutral: 5.31

Cc1cc(Oc2nc(C3(Cl)CC3)ns2)c(Cl)cc1N=CN1CCCCC1 [compound 614]
log p acidic: 1.98

CC(C)N(C)C=Nc1cc(Cl)c(Oc2ccc(Cl)c(C(F)(F)F)c2)cc1Cl [compound 817]
log p H3PO4: 2.74 | log p HCO2H: 2.8 | log p neutral: 5.88

CC(C)N(C)C=Nc1cc(C(F)(F)F)c(Oc2ccc(Cl)c(C(F)(F)F)c2)cc1Cl [compound 949]
log p H3PO4: 2.82 | log p HCO2H: 3.08 | log p neutral: 6

Cc1cc(Oc2ncnc(Oc3ccc(Cl)cc3)c2F)c(Cl)cc1N=CN1CCCCC1 [compound 622]
log p HCO2H: 2.41
